≈ marks a conversion by molar mass, not a printed value.
Experiments:
[1] = Metabolic stability in human liver microsomes assessed as half life measured up to 60 mins by LC/MS analysis; format: ADME, Microsome
Plasmodium falciparum [2] = assay: microbe, parasite or virus in culture; conditions: Dd2, 72 h
Description: Antiplasmodial activity against asexual blood-stage Plasmodium falciparum Dd2 using 2% haematocrit and 0.2% parasitemia assessed as reduction in fluorescence measured after 72 hrs by Malaria SYBR Green I-based Fluorescence (MSF) assay

Plasmodium yoelii [3] = assay: Antimalarial activity against erythrocytic Plasmodium yoelii MRA-428 infected in CF1 mouse assessed as reduction in parasitemia at 25 mg/kg, po once daily for 4 days measured on day 5; format: functional; parameters: scale not given: the % may be the effect or the level left; conditions: time 4 day
in vitro [4] = conditions: human, liver microsomes
in vitro [5] = conditions: mouse, liver microsomes
Plasmodium falciparum [6] = assay: Antiplasmodial activity against asexual blood-stage Plasmodium falciparum Tm90-C2B using 2% haematocrit and 0.2% parasitemia assessed as reduction in fluorescence measured after 72 hrs by Malaria SYBR Green I-based Fluorescence (MSF) assay; format: functional, organism-based
Plasmodium yoelii [7] = assay: Antimalarial activity against erythrocytic Plasmodium yoelii MRA-428 infected in CF1 mouse assessed as reduction in parasitemia at 10 mg/kg, po once daily for 4 days measured on day 5; format: functional; parameters: scale not given: the % may be the effect or the level left; conditions: time 4 day
[8] = Solubility of the compound in potassium phosphate buffer at pH 7.4 by UV-vis spectroscopy; conditions: buffer
[9] = Metabolic stability in mouse liver microsomes assessed as half life measured up to 60 mins by LC/MS analysis; format: ADME, Microsome
MDR1 (human) [10] = assay: Apparent permeability across basolateral to apical side in MDCK transfected with human MDR1 cells incubated for 1 hr by LC-MS analysis; conditions: dog, MDCK-MDR1
HepG2 = assay: Cytotoxicity against human HepG2 cells assessed as cell viability measured after 48 hrs by MTT assay; format: toxicity, cell-based; conditions: hepg2
MDR1 (human) [11] = assay: Apparent permeability across apical to basolateral side in MDCK transfected with human MDR1 cells incubated for 1 hr by LC-MS analysis; conditions: dog, MDCK-MDR1
Plasmodium falciparum [12] = assay: microbe, parasite or virus in culture; conditions: D6, 72 h
Description: Antiplasmodial activity against asexual blood-stage Plasmodium falciparum D6 using 2% haematocrit and 0.2% parasitemia assessed as reduction in fluorescence measured after 72 hrs by Malaria SYBR Green I-based Fluorescence (MSF) assay

Plasmodium yoelii [13] = assay: Antimalarial activity against erythrocytic Plasmodium yoelii MRA-428 infected in CF1 mouse assessed as reduction in parasitemia at 50 mg/kg, po once daily for 4 days measured on day 5; format: functional; parameters: scale not given: the % may be the effect or the level left; conditions: time 4 day
Plasmodium yoelii [14] = assay: Antimalarial activity against erythrocytic Plasmodium yoelii MRA-428 infected in CF1 mouse assessed as cured mouse at 25 mg/kg, po once daily for 4 days measured on day 28 day; format: functional, organism-based; conditions: time 4.0 day
Plasmodium yoelii [15] = assay: Antimalarial activity against erythrocytic Plasmodium yoelii MRA-428 infected in CF1 mouse assessed as cured mouse at 50 mg/kg, po once daily for 4 days measured on day 28 day; format: functional, organism-based; conditions: time 4.0 day

SMILES | half-life [1] | IC50 (Plasmodium falciparum [2]) | Activity (Plasmodium yoelii [3]) | microsomal CLint at 1 h (in vitro [4]) | microsomal CLint at 1 h (in vitro [5]) | IC50 (Plasmodium falciparum [6]) | Activity (Plasmodium yoelii [7]) | solubility [8] | half-life [9] | Papp B→A at 1 h (MDR1 (human) [10]) | IC50 (HepG2) | Papp A→B at 1 h (MDR1 (human) [11]) | IC50 (Plasmodium falciparum [12]) | Activity (Plasmodium yoelii [13]) | Activity (Plasmodium yoelii [14]) | Activity (Plasmodium yoelii [15])
C(/NC1CCCCCC1)=C1/N=C(c2ccc[nH]2)C2=C1OCCO2 | 14.9 min | 25.7 nM | 31.2% | 92.8 µL/min/mg | 79.8 µL/min/mg | 12.6 nM | 0% | 183 µM (≈ 57.4 µg/mL) | 19.5 min | 2.9 ×10⁻⁶ cm/s | 7680 nM | 1.7 ×10⁻⁶ cm/s |  |  |  | 
COc1ccc(Cc2ccc(C3=N/C(=C\NC4CCCCC4)C4=C3CCCC4)[nH]2)cc1 | > 60 min | 12.2 nM | 0% | 11.2 µL/min/mg | 9.87 µL/min/mg | 5.92 nM | 0% | 25.5 µM (≈ 10.6 µg/mL) | > 60 min |  | 2020 nM |  | 9.68 nM |  |  | 
CCc1ccc(C2=N/C(=C\NC3CCCCCCC3)C(C)=C2C)[nH]1 | > 60 min | 3.97 nM | 97% |  |  | 4.28 nM |  | 57.7 µM (≈ 18.8 µg/mL) | > 60 min |  | 2020 nM | 0.022 ×10⁻⁶ cm/s | 5.05 nM | 100% |  | 
CCC1=C(CC)/C(=C/NC2CCCCCCC2)N=C1c1ccc(Br)[nH]1 | > 60 min | 124 nM | 42.3% | 9.19 µL/min/mg | 10.4 µL/min/mg | 75.2 nM | 20.4% | 6.28 µM (≈ 2.54 µg/mL) | > 60 min | 0.066 ×10⁻⁶ cm/s | 9480 nM | 0.006 ×10⁻⁶ cm/s | 53.4 nM |  |  | 
COc1ccc(Cc2ccc(C3=N/C(=C\NC4CCCCC4)C4=C3OCCO4)[nH]2)cc1 | > 60 min | 12.6 nM | 31.2% | 18.1 µL/min/mg | 16.2 µL/min/mg | 9.6 nM | 5.01% | 16.4 µM (≈ 6.88 µg/mL) | > 60 min | 0.051 ×10⁻⁶ cm/s | 1550 nM | 0.002 ×10⁻⁶ cm/s | 6.08 nM |  |  | 
C(/NC1CCCCC1)=C1/N=C(c2ccc[nH]2)C2=C1OCCO2 | 13.1 min | 53.5 nM | 26.7% | 105 µL/min/mg | 86.4 µL/min/mg | 43.9 nM | 7.6% | 231 µM (≈ 69.2 µg/mL) | 16.1 min | 4.4 ×10⁻⁶ cm/s | 9080 nM | 0.33 ×10⁻⁶ cm/s | 48.5 nM |  |  | 
CCN(CC)CCCC(C)Nc1ccnc2cc(Cl)ccc12 (configuration not stated) |  |  |  |  |  |  |  |  |  |  |  |  |  |  | Not active; None Of The Mouse Cured Out Of Four Tested | Not active; None Of The Mouse Cured Out Of Four Tested
CCC1=C(CC)/C(=C/NC2CCCCCC2)N=C1c1ccc(-c2ccc(OC)cc2)[nH]1 | 8.44 min | 25.4 nM |  | 164 µL/min/mg | 96.1 µL/min/mg | 16.6 nM | 4.62% | 45.7 µM (≈ 19.1 µg/mL) | 14.5 min | 0.013 ×10⁻⁶ cm/s | 3400 nM | 0.045 ×10⁻⁶ cm/s | 19.4 nM |  |  | 
CCC1=C(C)/C(=C/NC2CCCCC2)N=C1c1ccc(C)[nH]1 | > 60 min | 15.7 nM | 100% | 6.07 µL/min/mg | 43.7 µL/min/mg | 32.3 nM | 80.3% | 72.5 µM (≈ 21.6 µg/mL) | 31.7 min | 0.099 ×10⁻⁶ cm/s | 8090 nM | 0.33 ×10⁻⁶ cm/s | 27.4 nM | 100% | Not active; None Of The Mouse Cured Out Of Four Tested | Not active; None Of The Mouse Cured Out Of Four Tested
CCC1=C(C)/C(=C/NC2CCCCCCC2)N=C1c1ccc(CC)[nH]1 | 41.4 min | 9.01 nM | 100% | 33.4 µL/min/mg | 17.5 µL/min/mg | 2.98 nM | 61.9% | 10 µM (≈ 3.4 µg/mL) | > 60 min |  | 4280 nM | 0.095 ×10⁻⁶ cm/s | 7.39 nM | 100% | Not active; None Of The Mouse Cured Out Of Four Tested | Not active; None Of The Mouse Cured Out Of Four Tested
CCc1ccc(C2=N/C(=C\NC3CCCCC3)C(OC)=C2OC)[nH]1 | > 60 min | 15.5 nM | 12.1% | 16.8 µL/min/mg | 52.8 µL/min/mg | 3.96 nM | 12.3% | 99.6 µM (≈ 32.8 µg/mL) | 26.2 min | 0.49 ×10⁻⁶ cm/s | 11400 nM | 0.21 ×10⁻⁶ cm/s | 10.3 nM |  |  | 
COC1=C(OC)/C(=C/NC2CCCCC2)N=C1c1ccc[nH]1 | 14.6 min | 73.5 nM | 70.8% | 94.9 µL/min/mg | 74.1 µL/min/mg | 83.3 nM | 0% | 478 µM (≈ 144 µg/mL) | 18.7 min | 4.8 ×10⁻⁶ cm/s | 41600 nM | 4.3 ×10⁻⁶ cm/s | 66.8 nM |  |  | 
CCC1=C(CC)/C(=C/NC2CCCCC2)N=C1c1ccc[nH]1 | 30.5 min | 115 nM | 100% | 45.5 µL/min/mg | 34.5 µL/min/mg | 79.9 nM | 94.4% | 307 µM (≈ 91.3 µg/mL) | 40.1 min | 0.18 ×10⁻⁶ cm/s | 13000 nM | 0.22 ×10⁻⁶ cm/s | 72.1 nM | 100% | Not active; None Of The Mouse Cured Out Of Four Tested | Not active; None Of The Mouse Cured Out Of Four Tested
CC1=C(C)/C(=C/NC2CCCCC2)N=C1c1ccc(C)[nH]1 | > 60 min | 4.17 nM | 100% | 13.6 µL/min/mg | 37.3 µL/min/mg | 4.9 nM | 0% | 168 µM (≈ 47.6 µg/mL) | 37.2 min | 0.37 ×10⁻⁶ cm/s | 6820 nM | 0.053 ×10⁻⁶ cm/s | 9.92 nM | 100% | Not active; None Of The Mouse Cured Out Of Four Tested | Not active; None Of The Mouse Cured Out Of Four Tested
CCc1ccc(C2=N/C(=C\NC3CCCCCC3)C(OC)=C2OC)[nH]1 | > 60 min | 4.97 nM | 59.6% | 12.6 µL/min/mg | 37.9 µL/min/mg | 1.41 nM | 13.5% | 56.1 µM (≈ 19.3 µg/mL) | 36.6 min | 0.16 ×10⁻⁶ cm/s | 11000 nM | 0.059 ×10⁻⁶ cm/s | 3.69 nM |  |  | 
CC1=C(C)/C(=C/NC2CCCCCC2)N=C1c1ccc(C)[nH]1 | 55 min | 3.73 nM | 100% | 25.2 µL/min/mg | 37.6 µL/min/mg | 4.84 nM | 0% | 72.3 µM (≈ 21.5 µg/mL) | 36.8 min | 0.12 ×10⁻⁶ cm/s | 6770 nM | 0.006 ×10⁻⁶ cm/s | 12.4 nM | 100% | Not active; None Of The Mouse Cured Out Of Four Tested | Not active; None Of The Mouse Cured Out Of Four Tested
CCc1ccc(C2=N/C(=C\NC3CCCCCC3)C3=C2OCCO3)[nH]1 | > 60 min | 16.7 nM | 67.4% | 20.6 µL/min/mg | 48.2 µL/min/mg | 3.34 nM | 34.2% | 52.1 µM (≈ 17.8 µg/mL) | 28.7 min | 0.47 ×10⁻⁶ cm/s | 1780 nM | 0.042 ×10⁻⁶ cm/s | 7.58 nM |  |  | 
C(/NC1CCCCC1)=C1/N=C(c2ccc[nH]2)C2=C1CCCC2 |  | 13.2 nM | 100% | 51.9 µL/min/mg | 58.2 µL/min/mg | 16.6 nM | 88.8% | 294 µM (≈ 86.9 µg/mL) | 23.8 min | 0.092 ×10⁻⁶ cm/s |  | 0.27 ×10⁻⁶ cm/s |  | 100% | Not active; None Of The Mouse Cured Out Of Four Tested | Not active; None Of The Mouse Cured Out Of Four Tested
CCC1=C(CC)/C(=C/NC2CCCCCCC2)N=C1c1ccc(-c2ccccc2)[nH]1 | 32.9 min | 48.2 nM |  | 42.1 µL/min/mg | 26.5 µL/min/mg | 65.5 nM | 37.4% | 4.62 µM (≈ 1.86 µg/mL) | 52.2 min | 0.002 ×10⁻⁶ cm/s | 8960 nM | 0.004 ×10⁻⁶ cm/s | 39 nM |  |  | 
